Experimental data reported in US9688723B2, “C4S proteoglycan specific transporter molecules” (PHI PHARMA SA, priority 2012, dated 2017).
Entries after “also recorded” stand apart in the source; their conditions may differ. Where no end group is shown, it is not given here. [ ]: non-standard residue; d: D form.

How the values were obtained:
[1] = test system: Raw macrophage-derived cells; assay: Cell proliferation assay (phenol red, LDH content); type: cell-based; conditions: for Effect on growth of raw macrophage-derived cells: 2.5 μM, 48 hrs, phenol red / LDH content
Description: Use of the exemplary peptide of the invention as a carrier moiety was also examined in a cell proliferation assay. Raw macrophage-derived cells were incubated for 48 hrs with 2.5 μM of the indicated nucleoside analog or the analog as a conjugate with the RYF peptide in the presence of phenol red. Cultures containing dividing cells turn medium clear, while the medium of cultures containing in non-dividing cells remains dark (active compounds). Percentage growth was also determined by measuring the relative content of LDH (FIG. 11B). […] For example, the “ribo” and “tg” (Thioguanine) compounds have no effect at the concentration tested (2.5 μm), but become potently cytotoxic when conjugated to an exemplary peptide transporter of the invention (i.e., RYF).
The Experiment was repeated to investigate the effects of the L- or D-linkage on cytotoxic properties of the BAM moiety. The cells were incubated with 3′ amino β-D-arabinofuranoside either alone or in the form of a conjugate with the RYF peptide. […] However, once the 3′ position is conjugated to a D-entantiomer, it cannot be removed by a protease, and once incorporated into the DNA-strand, it will function to prevent further DNA elongation.
The experiment was repeated with 3′AdT (3′ amino deoxythymidine) and 3′ amino β-D-arabinofuranoside (Ribo). Cells were incubated with each of the compounds alone or as an N-terminally linked conjugate to the RYF peptide via either L-Glu (E) or D-Glu (e). The cells were then incubated for 72 hrs before LDH content was measured.

[2] = test system: leukemia/lymphoma cell lines; assay: Cancer cell line screening panel, summary over leukemia/lymphoma lines; type: cell-based, human; conditions: 6 leukemia/lymphoma cell lines
Description: (§1) The use of peptides of the invention as carrier molecules was investigated in a screening panel of human cancer cell lines. The human tumor cell lines of the cancer screening panel were grown in RPMI 1640 medium containing 5% fetal bovine serum and 2 mM L-glutamine. For a typical screening experiment, cells were inoculated into 96 well microtiter plates in volumes of 100 μL at plating densities ranging from 5,000 to 40,000 cells/well depending on the doubling time of individual cell lines. […] After 24 h, two plates of each cell line were fixed in situ with TCA to provide a measurement of the cell population at the time of drug addition (Tz). The experimental therapeutics were solubilized in dimethyl sulfoxide at 400-fold the desired final maximum test concentration and stored frozen prior to use. […] Bound stain was subsequently solubilized with 10 mM trizma base, and the absorbance was read on an automated plate reader at a wavelength of 515 nm. […] Using the seven absorbance measurements [time zero, (Tz), control growth, (C), and test growth in the presence of compound at the five concentration levels (Ti)], the percentage growth was calculated at each of the compound concentrations levels. Percentage growth inhibition was calculated as: [(Ti−Tz)/(C−Tz)]×100 for concentrations for which Ti≧Tz [(Ti−Tz)/Tz]×100 for concentrations for which Ti<Tz.

[3] = test system: cell lines from other lineages; assay: Cancer cell line screening panel, summary over other lineages; type: cell-based, human; conditions: 54 cell lines from other lineages
Description: as §1

[4] = test system: chondroitin-4-sulfate (C4S); assay: Modified ELISA, peptide binding to coated proteoglycans
Description: The binding of the nine-mer peptides of the invention to C4S predicted by the models, in particular, as compared to the binding to other proteoglycans was tested using a modified ELISA protocol. ELISA plates were coated overnight with 1 mg/ml of heparin sulphate (HS), chondroitin-4-sulfate (C4S), chondroitin-6-sulfate (C6S) or hyaluronic acid (HA) in PBS. The wells were then washed with PBS and incubated for 1 hour at room temperature with 1 mg/ml of an exemplary peptide of the invention having the sequence RYFvRIKYRh (“RYF”; SEQ ID NO:2) or a standard TAT peptide. The plates were then thoroughly washed with PBS and subsequently photographed with a LUMASCOPE™ luminescent microscope. Images were then quantified using the ImageJ software (FIG. 4).
The same modified ELISA protocol was used to examine the impact of altering the chirality of the amino acid residues at positions 1, 5, 9 and 3 or 7 on the binding of the peptides to C4S. […] In FIG. 5, an upper case letter indicates an L-enantiomer and a lower case letter indicates a D-enantiomer.

CHO cells = assay: FITC-peptide binding to C4S expressing cells, fluorescence microscopy; type: cell-based; set-up: dose or concentration left out as unconfirmed; conditions: FITC conjugated peptide, 24 hrs
Text: (§2) As explained throughout the description, the present molecules are able to selectively bind C4S over other proteoglycans.

Sog9 cells = assay: FITC-peptide binding to cells lacking C4S, fluorescence microscopy; type: cell-based; set-up: dose or concentration left out as unconfirmed; conditions: FITC conjugated peptide, 24 hrs
Text: as §2

Macrophages = assay: FITC-RYF binding to chlorate pre-treated macrophages; type: cell-based; conditions: 0, 3, 10 or 30 μM chlorate for 16 hours
Description: The same fluorescent microscopy procedure was used to assess the binding of the FITC-RYF peptide on C4S expressing cells pre-treated with chlorate. Chlorate is an inhibitor of sulfotransferases, and, thus, chlorate treatment decreases or inhibits C4S expression. Macrophages were treated with 0, 3, 10 or 30 μM chlorate for 16 hours prior to washing, incubation with RYF (SEQ ID NO:2) peptide and photography as described above.

Compound | Effect on growth of raw macrophage-derived cells [1] | mean growth [2] | mean growth [3] | Activity on cell growth (LDH content) ([1]; 72 hrs, alone or N-terminally linked to RYF via L-Glu (E) or D-Glu (e)) | Binding to C4S ([4]; ELISA plates coated with 1 mg/ml C4S, 1 mg/ml peptide, 1 hour, room temperature) | Selective binding to C4S over other proteoglycans ([4]; versus heparin sulphate (HS), chondroitin-6-sulfate (C6S), hyaluronic acid (HA)) | Binding to CHO cells expressing C4S (CHO cells) | Binding to Sog9 cells lacking C4S (Sog9 cells) | Binding to macrophages pre-treated with chlorate (Macrophages)
Nc1nc2nc[nH]c2c(=S)[nH]1 [tg, Thioguanine] | no effect | 44.13 % of untreated | 86.65 % of untreated |  |  |  |  |  | 
3′ amino β-D-arabinofuranoside [Ribo] | no effect |  |  | inactive |  |  |  |  | 
RYFvRIKYRh (RYF[dV]RIKYR[dH]) |  |  |  |  | specifically binds to the C4S proteoglycan | selectively binds C4S over the other proteoglycans tested; also recorded: specifically and selectively binds C4S over other proteoglycans | intense, uniform binding | did not bind; also recorded: failed to bind | binding correlated with chondroytine sulfate expression; also recorded: binding decreased with decreasing C4S expression
